Results: US20130158024A1, “TRICYCLIC NECROSTATIN COMPOUNDS” (priority 2005, published 2013)
Like-named read-outs stand apart in the source and are kept apart here.

Assays:
[1] = tested on: FADD-deficient Jurkat T cells treated with TNF-α; assay: Inhibition of necroptosis (CICD) in FADD-deficient Jurkat T cells treated with TNF-α, ATP-based viability; format: cell-based, human; details: for antinecroptotic (anti-CICD) activity, in words: FADD-deficient Jurkat cells, TNFα
[2] = Homo sapiens, Jurkat, 24 h, read-out: EC50 (μM) for inhibition of necroptosis
[3] = 10 ng/mL human TNF-α, 24 hours, ATP-based viability, EC50 ± SD from at least two independent experiments, read-out: EC50 (μM) for inhibition of necroptosis

Structure (SMILES) | EC50 [1, 2] [µM] | antinecroptotic (anti-CICD) activity, in words [1] | also measured
COc1ccc([C@H]2[C@H]3C[C@H](N(C)C)c4ccc(OC)cc4C3=NN2C(C)=O)cc1 (relative stereo) [Compound 146, (3R,3aR,5S)-rel-2-acetyl-5-(N,N-dimethylamino)-3,3a,4,5-tetrahydro-3-(4-methoxyphenyl)-8-methoxy-2H-benz[g]indazole] | 5.1 ± 2.2 | – | –
CC(=O)N1N=C2c3cc(O)ccc3CC[C@@H]2[C@@H]1c1ccc(O)cc1 (relative stereo) [Compound 176, (3R,3aR)-rel-2-acetyl-3,3a,4,5-tetrahydro-3-(4-hydroxyphenyl)-8-hydroxy-2H-benz[g]indazole] | > 100 | – | –
COc1ccc2c(c1)C1=NN(C(C)=O)[C@@H](c3ccc4c(c3)OCCO4)[C@@H]1CC2 (relative stereo) [Compound 206, (3R,3aS)-rel-2-acetyl-3,3a,4,5-tetrahydro-3-(3,4-ethylenedioxyphenyl)-8-methoxy-2H-benz[g]indazole] | – | – | melting point: 194 to 197 °C
COc1ccc([C@H]2[C@@H]3CCc4ccc(F)cc4C3=NN2C(C)=O)cc1 (relative stereo) [Compound 170, (3R,3aS)-rel-2-acetyl-3,3a,4,5-tetrahydro-3-(4-methoxyphenyl)-8-fluoro-2H-benz[g]indazole] | 2.7 ± 0.82 | – | –
COc1ccc([C@H]2[C@H]3CCc4ccc(OC)cc4C3=NN2C(N)=S)cc1 (relative stereo) [Compound 152, (3R,3aR)-rel-2-carbothioamide-3,3a,4,5-tetrahydro-3-(4-methoxyphenyl)-8-methoxy-2H-benz[g]indazole] | – | – | EC50 [1, 3]: 8.8 ± 3 µM
CCN1N=C2c3cc(OC)ccc3CC[C@@H]2[C@@H]1c1ccc(OC)cc1 (relative stereo) [Compound 213, (3R,3aR)-rel-2-ethyl-3,3a,4,5-tetrahydro-3-(4-methoxyphenyl)-8-methoxy-2H-benz[g]indazole] | > 100 | complete loss of necroptosis inhibitory activity | –
COc1cc2c(cc1OC)C1=NN(C(C)=O)[C@@H](c3ccc(F)cc3)[C@@H]1CC2 (relative stereo) [Compound 198, (3R,3aS)-rel-2-acetyl-3,3a,4,5-tetrahydro-3-(4-fluorophenyl)-7,8-dimethoxy-2H-benz[g]indazole] | – | – | melting point: 231 to 233 °C
CN1C(=O)C(Cc2c[nH]c3c(Cl)cccc23)NC1=S (centres unmarked) [Compound 7-Cl-Nec-1] | – | – | EC50 ([1]; Jurkat FADD deficient cells treated with TNFα, read-out: EC50): 0.182 µM; increase in activity relative to Nec-1 ([1]; addition of a chlorine to the phenyl ring of Nec-1): approximately 2.7 fold
COc1ccc2c(c1)CC[C@H]1C2=NN(C(C)=O)[C@H]1c1ccc(F)cc1 (relative stereo) [Compound 163, (3R,3aR)-rel-2-acetyl-3,3a,4,5-tetrahydro-3-(4-fluorophenyl)-7-methoxy-2H-benz[g]indazole] | > 100 | loss of activity | –
COc1ccc2c(c1)C1=NN(C(C)=O)[C@@H](c3ccc(O)cc3)[C@H]1CC2 (relative stereo) [Compound 175, (3R,3aR)-rel-2-acetyl-3,3a,4,5-tetrahydro-3-(4-hydroxyphenyl)-8-methoxy-2H-benz[g]indazole] | 5.9 ± 1.4 | detrimental to activity to varying degrees | –
COc1ccc([C@H]2[C@H]3CCc4ccc(OC)cc4C3=NN2C=O)cc1 (relative stereo) [Compound 147, (3R,3aR)-rel-2-formyl-3,3a,4,5-tetrahydro-3-(4-methoxyphenyl)-8-methoxy-2H-benz[g]indazole] | 0.92 ± 0.091 | – | –
COc1ccc([C@H]2[C@@H]3CCc4ccc([N+](=O)[O-])cc4C3=NN2C(C)=O)cc1 (relative stereo) [Compound 168, (3R,3aS)-rel-2-acetyl-3,3a,4,5-tetrahydro-3-(4-methoxyphenyl)-8-nitro-2H-benz[g]indazole] | > 100 | – | –
COc1ccc([C@H]2[C@@H]3CCc4ccccc4C3=NN2C(C)=O)cc1 (relative stereo) [Compound 201, (3R,3aS)-rel-2-acetyl-3,3a,4,5-tetrahydro-3-(4-methoxyphenyl)-2H-benz[g]indazole] | – | – | melting point: 260 to 262 °C
COc1ccc2c(c1)C1=NN(C(C)=O)[C@@H](c3ccc4c(c3)OCO4)[C@@H]1CC2 (relative stereo) [Compound 205, (3R,3aS)-rel-2-acetyl-3,3a,4,5-tetrahydro-3-(3,4-methylenedioxyphenyl)-8-methoxy-2H-benz[g]indazole] | – | – | melting point: 165 to 169 °C
COc1ccc([C@H]2[C@H]3CCc4ccc(OC)cc4C3=NN2C(=O)COC(C)=O)cc1 (relative stereo) [Compound 150, (3R,3aR)-rel-2-acetoxyacetyl-3,3a,4,5-tetrahydro-3-(4-methoxyphenyl)-8-methoxy-2H-benz[g]indazole] | – | – | EC50 [1, 3]: 3.1 ± 0.17 µM
COc1ccc([C@H]2[C@H]3CCc4ccc([N+](=O)[O-])cc4C3=NN2C(C)=O)cc1 (relative stereo) [Compound 169, (3R,3aR)-rel-2-acetyl-3,3a,4,5-tetrahydro-3-(4-methoxyphenyl)-8-nitro-2H-benz[g]indazole] | 3.5 ± 1.5 | diminished inhibitory activity | –

Structure (SMILES) | EC50 [1, 2] [µM] | antinecroptotic (anti-CICD) activity, in words [1] | also measured
COCC(=O)N1N=C2c3cc(OC)ccc3CC[C@@H]2[C@@H]1c1ccc(OC)cc1 (relative stereo) [Compound 158, (3R,3aR)-rel-2-methoxyacetyl-3,3a,4,5-tetrahydro-3-(4-methoxyphenyl)-8-methoxy-2H-benz[g]indazole] | – | – | EC50 [1, 3]: 0.44 ± 0.24 µM
COc1ccc([C@H]2[C@H]3CCc4ccc(OCCN5CCOCC5)cc4C3=NN2C(C)=O)cc1 (relative stereo) [Compound 183, (3R,3aR)-rel-2-acetyl-3,3a,4,5-tetrahydro-3-(4-methoxyphenyl)-8-(4-morpholino)ethoxy-2H-benz[g]indazole] | – | diminished activity | EC50 [1, 3]: > 50 µM
COc1ccc2c(c1)CC[C@@H]1C2=NN(C(C)=O)[C@H]1c1ccc(F)cc1 (relative stereo) [Compound 162, (3R,3aS)-rel-2-acetyl-3,3a,4,5-tetrahydro-3-(4-fluorophenyl)-7-methoxy-2H-benz[g]indazole] | > 100 | – | –
COc1ccc([C@H]2[C@H]3CCc4ccc(OC)cc4C3=NN2C(N)=O)cc1 (relative stereo) [Compound 153, (3R,3aR)-rel-2-carboxamide-3,3a,4,5-tetrahydro-3-(4-methoxyphenyl)-8-methoxy-2H-benz[g]indazole] | – | – | EC50 [1, 3]: 4.3 ± 2.9 µM
COc1ccc2c(c1)C1=NN(C(C)=O)[C@@H](c3ccc(SC)cc3)[C@H]1CC2 (relative stereo) [Compound 182, (3R,3aR)-rel-2-acetyl-3,3a,4,5-tetrahydro-3-(4-thiomethoxyphenyl)-8-methoxy-2H-benz[g]indazole] | – | detrimental to activity to varying degrees | EC50 [1, 3]: 1.1 ± 0.69 µM
CNC(=S)N1N=C2c3cc(OC)ccc3CC[C@@H]2[C@@H]1c1ccc(OC)cc1 (relative stereo) [Compound 154, (3R,3aR)-rel-2-carbothioamide-3,3a,4,5-tetrahydro-3-(4-methoxyphenyl)-8-methoxy-N-methyl-2H-benz[g]indazole] | – | – | EC50 [1, 3]: 7.9 ± 2 µM
COc1ccc([C@H]2[C@H]3CCc4ccc(OCc5ccccc5)cc4C3=NN2C(C)=O)cc1 (relative stereo) [Compound 181, (3R,3aR)-rel-2-acetyl-3,3a,4,5-tetrahydro-3-(4-methoxyphenyl)-8-benzyloxy-2H-benz[g]indazole] | 5 ± 0.7 | diminished activity | –
COc1ccc([C@H]2[C@H]3CCc4ccc(F)cc4C3=NN2C(C)=O)cc1 (relative stereo) [Compound 171, (3R,3aR)-rel-2-acetyl-3,3a,4,5-tetrahydro-3-(4-methoxyphenyl)-8-fluoro-2H-benz[g]indazole] | 0.28 ± 0.032 | tolerated | –
COc1ccc([C@H]2[C@H]3C[C@H](N)c4ccc(OC)cc4C3=NN2C(C)=O)cc1 (relative stereo) [Compound 145, (3R,3aR,5S)-rel-2-acetyl-5-amino-3,3a,4,5-tetrahydro-3-(4-methoxyphenyl)-8-methoxy-2H-benz[g]indazole] | 1.2 ± 0.38 | – | –
CN1C(=O)N[C@H](Cc2c[nH]c3c(Cl)cccc23)C1=O [R-7-Cl—O-Nec-1] | – | – | EC50 ([1]; Homo sapiens, Jurkat FADD deficient cells treated with TNFα, read-out: EC50): 0.047 µM; potency at inhibiting CICD relative to the (S)-enantiomer ([1]; enantiomers of 7-Cl—O-Nec-1): about 4 times
COc1ccc([C@H]2[C@H]3CCc4ccc(OC)cc4C3=NN2C(=N)N)cc1 (relative stereo) [Compound 157, (3R,3aR)-rel-2-carboxamidine-3,3a,4,5-tetrahydro-3-(4-methoxyphenyl)-8-methoxy-2H-benz[g]indazole] | – | – | EC50 [1, 3]: > 100 µM
COc1ccc([C@H]2[C@H]3CCc4cccc(OC)c4C3=NN2C(C)=O)cc1 (relative stereo) [Compound 180, (3R,3aR)-rel-2-acetyl-3,3a,4,5-tetrahydro-3-(4-methoxyphenyl)-9-methoxy-2H-benz[g]indazole] | > 50 | loss of activity | –
COc1ccc2c(c1)C1=NN(C(C)=O)[C@@H](c3ccc(OCc4ccccc4)cc3)[C@H]1CC2 (relative stereo) [Compound 174, (3R,3aR)-rel-2-acetyl-3,3a,4,5-tetrahydro-3-(4-benzyloxyphenyl)-8-methoxy-2H-benz[g]indazole] | > 100 | detrimental to activity to varying degrees | –
COc1ccc2c(c1)C1=NN(C(C)=O)[C@@H](c3ccc(O[N+](=O)[O-])cc3)[C@H]1CC2 (relative stereo) [Compound 172, (3R,3aR)-rel-2-acetyl-3,3a,4,5-tetrahydro-3-(4-nitroxyphenyl)-8-methoxy-2H-benz[g]indazole] | 1.8 ± 0.38 | – | –
COc1ccc([C@H]2[C@H]3CCc4c(OC)cccc4C3=NN2C(C)=O)cc1 (relative stereo) [Compound 173, (3R,3aR)-rel-2-acetyl-3,3a,4,5-tetrahydro-3-(4-methoxyphenyl)-6-methoxy-2H-benz[g]indazole] | > 100 | loss of activity | –
